Reference: patent EP0223143A2, “Analogs of atrial natriuretic peptides” (CALIFORNIA BIOTECHNOLOGY, INC., priority 1985, dated 1987)
Entries after “also recorded” stand apart in the source; their conditions may differ. Where a SMILES comes first, the peptide text is derived from it. Bridges are numbered along the chain shown (N, C = ends). Where no end group is shown, it is not given here. [ ]: non-standard residue; d: D form. The star is where a group is joined. Phenylacetyl(4-Ph) = O=C(Cc1ccc(-c2ccccc2)cc1)*; Acetyl(2-naphthyloxy) = O=C(COc1ccc2ccccc2c1)*; Acetyl(2-naphthyl) = O=C(Cc1ccc2ccccc2c1)*

Assays:
[1] = system: specific receptor sites on BASM or BAE cells; test: competitive displacement receptor binding assay (Tables IA-IE); parameters: species or system bovine; details: statements in words on Tables IA-IE; displacement of [^125I]-rANP(126-150)
Source text: (§1) An assay has been developed, generally in accordance with the disclosure of Schenk, supra, and Scarborough, R.M. et al., J. Biol. Chem. 261:12960-12964 (1986), which evaluates the ability of ANP analogs to compete with a labeled native ANP for binding to cultured BASM and BAE cells. This native ANP, having the amino acid sequence: [drawing 103] was iodinated on the Carboxy-terminal Y residue and is identified as […]. Analogous "competitive displacement" receptor binding assays are considered commonplace in the art for examining specific ligand-receptor interactions.
(§2) Assuming these ANP analogs act at one or more ANP receptor sites, then increased receptor affinity should reflect increased biological potency.

[2] = system: pentobarbital anesthetized dogs; test: diuresis and natriuresis in anesthetized dogs; assay type: in vivo; details: vs saline controls
Procedure: In these examples, cannulae were placed in the left and right ureters and femoral vein of anesthetized dogs and urine was collected from the ureters. Analog peptides were administered via the femoral vein. Prior to infusing analog peptides, saline was infused for 30 minutes and urine was then collected for three ten minute collection periods. Urine volume was determined gravimetrically and urine sodium was determined photometrically.
Following these three baseline collection periods, the selected analog peptides were infused for 60 minutes and urinary flow was measured for an additional 60 minutes following infusion. During infusion (60 minutes) and recovery (60 minutes), ten minute collection periods were obtained. Control animals which received only saline were studied in parallel.

[3] = molecular target: T1, BASM cell-associated receptors (Bos taurus, UniProt P10730); test: competitive displacement receptor binding assay, BASM cells (Figure 1); parameters: species or system bovine; details: 0.5 nM [^125I]-rANP(126-150), increasing concentrations of unlabeled peptide
T1 construct: endogenous in cells; host or cells: cultured BASM cells
T1 sequence (P10730 42-537): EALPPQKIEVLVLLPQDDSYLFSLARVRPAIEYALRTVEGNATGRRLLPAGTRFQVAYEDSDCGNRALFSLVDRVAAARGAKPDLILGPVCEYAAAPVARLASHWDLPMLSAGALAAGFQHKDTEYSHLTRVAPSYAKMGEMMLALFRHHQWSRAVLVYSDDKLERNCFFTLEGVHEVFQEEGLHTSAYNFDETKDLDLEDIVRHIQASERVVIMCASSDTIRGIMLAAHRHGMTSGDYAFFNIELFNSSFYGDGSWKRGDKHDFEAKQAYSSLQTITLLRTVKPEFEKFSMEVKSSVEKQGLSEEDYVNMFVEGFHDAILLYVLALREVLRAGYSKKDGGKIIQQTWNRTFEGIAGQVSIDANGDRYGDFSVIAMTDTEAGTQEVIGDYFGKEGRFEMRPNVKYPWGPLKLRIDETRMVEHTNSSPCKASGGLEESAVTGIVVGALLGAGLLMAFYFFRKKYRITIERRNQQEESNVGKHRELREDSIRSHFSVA
Source text: as §1, §2

anesthetized rats = test: diuresis in anesthetized rats; assay type: in vivo; details: compared with baseline, Figure 2
Procedure: In one set of examples, cannulae were placed in the left and right ureters and femoral vein of anesthetized rats and urine was collected from the ureters. Analog peptides were administered via the femoral vein. Prior to infusing the analog peptides, saline was infused for 30 minutes, urine was collected for 6 five minutes baseline periods and urine volume was determined gravimetrically. Following these baseline collection periods, various analog peptides were infused for 30 or 60 minutes and urine volume was measured in five minute periods during infusion and for 60 minutes following infusion (at which time rats were returned to saline). Data was examined by averaging urine flow rates for six five- minute baseline control periods immediately preceding infusion, and comparing values during and after administration of peptides with the "baseline" control values. Responses to peptides are thus evaluated and plotted as the percent of baseline control responses. Specific examples are shown in Figures 2A-H. The error bars at the beginning of the graphs represent baseline values ± standard deviations. Responses to peptides that are substantially above baseline ± SD can thus be interpreted as being statistically significant increases.

[4] = infused at 3 µg/kg/minute for 60 minutes
[5] = infused at 1 µg/kg/minute for 60 minutes

Row | Compound | receptor binding affinity (Ki(app)) [1] | also measured
1 | CC[C@H](C)[C@H](NC(=O)[C@H](CCCNC(=N)N)NC(=O)[C@H](CC(=O)O)NC(=O)[C@@H](NC(=O)[C@H](CCCNC(=N)N)NC(=O)CNC(=O)CNC(=O)Cc1ccc2ccccc2c1)[C@@H](C)CC)C(=O)NCC(=O)N[C@@H](C)C(N)=O [AP306, [2-Napthylacetyl]-G-G-R-I-D-R-I-G-A-NH2] ({Acetyl(2-naphthyl)}-GGRIDRIGA-NH2) | high binding affinity; also recorded: substantial Ki(app)s | urinary sodium excretion [2, 4]: significantly increased; urine flow rate (urine volume) [2, 4]: significantly increased
2 | CC[C@H](C)[C@H](NC(=O)[C@H](CCCNC(=N)N)NC(=O)[C@H](CC(=O)O)NC(=O)[C@@H](NC(=O)[C@H](CCCNC(=N)N)NC(=O)CNC(=O)[C@@H](C)NC(=O)COc1ccc2ccccc2c1)[C@@H](C)CC)C(N)=O [AP322, [2-Napthoxyacetyl]-[D-A]-G-R-I-D-R-I-NH2] ({Acetyl(2-naphthyloxy)}-[dA]GRIDRI-NH2) | greatly diminished activity | 
3 | CC[C@H](C)[C@@H]1NC(=O)[C@H](CCCNC(=N)N)NC(=O)[C@H](CC(=O)O)NC(=O)[C@H]([C@@H](C)CC)NC(=O)[C@H](CCCNC(=N)N)NC(=O)CNC(=O)[C@@H](NC(=O)[C@H](CO)NC(=O)[C@H](CO)NC(=O)[C@@H](N)CCCNC(=N)N)CSSC[C@@H](C(=O)N[C@@H](CC(N)=O)C(=O)N[C@@H](CO)C(=O)N[C@@H](Cc2ccccc2)C(=O)N[C@@H](CCCNC(=N)N)C(=O)N[C@@H](Cc2ccc(O)cc2)C(=O)O)NC(=O)CNC(=O)[C@H](CC(C)C)NC(=O)CNC(=O)[C@H](CO)NC(=O)[C@H](CCC(N)=O)NC(=O)[C@H](C)NC(=O)CNC1=O [AP24, R-S-S-C-G-R-I-D-R-I-G-A-O-S-G-L-G-C-N-S-F-R-Y] (H-RSSCGRIDRIGAQSGLGCNSFRY-OH; disulfide 4-18) | weaker apparent affinity | 
4 | CC[C@H](C)[C@H](NC(=O)[C@H](CCCNC(=N)N)NC(=O)[C@@H](CC(=O)O)NC(=O)[C@@H](NC(=O)[C@H](CCCNC(=N)N)NC(=O)CNC(=O)CNC(=O)[C@H](Cc1ccccc1)NC(=O)[C@H](C)N)[C@@H](C)CC)C(=O)NCC(=O)N[C@@H](C)C(N)=O [AP303, A-F-G-G-R-I-[D-D]-R-I-G-A-NH,] (H-AFGGRI[dD]RIGA-NH2) | inactive | 
5 | CC[C@H](C)[C@H](NC(=O)[C@H](CCCNC(=N)N)NC(=O)[C@H](CC(=O)O)NC(=O)[C@@H](NC(=O)[C@@H](CCCNC(=N)N)NC(=O)CNC(=O)CNC(=O)[C@H](Cc1ccccc1)NC(=O)[C@H](C)N)[C@@H](C)CC)C(=O)NCC(=O)N[C@@H](C)C(N)=O [AP301, A-F-G-G-[D-R]-I-D-R-I-G-A-NH2] (H-AFGG[dR]IDRIGA-NH2) | inactive | 
6 | CC[C@H](C)[C@H](NC(=O)[C@H](CCCNC(=N)N)NC(=O)[C@H](CC(=O)O)NC(=O)[C@@H](NC(=O)[C@H](CCCNC(=N)N)NC(=O)CNC(=O)CNC(=O)Cc1ccc2ccccc2c1)[C@@H](C)CC)C(N)=O [AP314, [2-Napthylacetyl]-G-G-R-I-D-R-I-NH2] ({Acetyl(2-naphthyl)}-GGRIDRI-NH2) | high binding affinity; also recorded: substantial Ki(app)s | urinary sodium excretion [2, 5]: significantly increased; urine flow rate (urine volume) [2, 5]: significantly increased
7 | AFGGRIDRIGA-NH2 [AP101, A-F-G-G-R-I-D-R-I-G-A-NH2] | substantial Ki(app)s | [^125I]-rANP(126-150) binding to BASM cell-associated receptors [3]: effectively prevent; urine flow rate (urine volume) (anesthetized rats; infused at 5 µg/min via femoral vein): significantly increased; urinary sodium excretion [2, 4]: significantly increased; urine flow rate (urine volume) [2, 4]: significantly increased
8 | CC[C@H](C)[C@H](NC(=O)[C@H](CCCNC(=N)N)NC(=O)[C@H](CC(=O)O)NC(=O)[C@@H](NC(=O)[C@H](CCCNC(=N)N)NC(=O)CNC(=O)CNC(=O)COc1ccc2ccccc2c1)[C@@H](C)CC)C(N)=O [AP319, [2-Napthoxyacetyl]-G-G-R-I-D-R-I-NH2] ({Acetyl(2-naphthyloxy)}-GGRIDRI-NH2) | high binding affinity | urine flow rate (urine volume) (anesthetized rats; infused at 10 µg/min via femoral vein): significantly increased
9 | CC[C@H](C)[C@H](NC(=O)[C@H](CCCNC(=N)N)NC(=O)CNC(=O)CNC(=O)Cc1ccc2ccccc2c1)C(=O)N[C@@H](CC(=O)O)C(=O)N[C@@H](CCCNC(=N)N)C(=O)N[C@H](C(N)=O)C(C)C [AP333, [2-Napthylacetyl]-G-G-R-I-D-R-V-NH2] ({Acetyl(2-naphthyl)}-GGRIDRV-NH2) | greatly diminished activity | 
10 | CC[C@H](C)[C@H](NC(=O)[C@H](CCCNC(=N)N)NC(=O)[C@H](CC(=O)O)NC(=O)[C@@H](NC(=O)[C@H](CCCNC(=N)N)NC(=O)CNC(=O)CNC(=O)Cc1ccc(-c2ccccc2)cc1)[C@@H](C)CC)C(N)=O [AP317, [4-Biphenylacetyl]-G-G-R-I-D-R-I-NH2] ({Phenylacetyl(4-Ph)}-GGRIDRI-NH2) | greatly diminished activity | 
11 | RIDRIG-NH2 [AP125, R-I-D-R-I-G-NH2] | inactive | 
12 | GGRIDRIGAA-NH2 [AP105, G-G-R-I-D-R-I-G-A-A-NH2] | inactive | 
13 | (desNH2-F)-G-G-R-I-D-R-I-NH2 [AP132] |  | [^125I]-rANP(126-150) binding to BASM cell-associated receptors [3]: effectively prevent
14 | CC[C@H](C)[C@H](NC(=O)[C@H](CCCNC(=N)N)NC(=O)CNC(=O)CNC(=O)[C@H](Cc1ccccc1)NC(=O)[C@H](C)N)C(=O)N[C@@H](CC(=O)O)C(=O)N[C@H](CCCNC(=N)N)C(=O)N[C@H](C(=O)NCC(=O)N[C@@H](C)C(N)=O)[C@@H](C)CC [AP304, A-F-G-G-R-I-D-[D-R]-I-G-A-NH2] (H-AFGGRID[dR]IGA-NH2) | inactive | 
